Reference: USRE48335E1, “Polymyxin derivatives as antimicrobial compounds” (priority 2014, dated 2020)
Converted amounts (≈) assume the structure as drawn. Positions of bridges follow the written chain, without caps; N, C: chain ends. Non-standard residues stand in square brackets, D forms with d. Residues, ends and D or L forms follow the SMILES beside them. *: point of attachment. X36 = O=C(c1cc(C(F)(F)F)cc(C(F)(F)F)c1)*; Benzoyl(4-Me) = Cc1ccc(C(=O)*)cc1; X38 = O=C(c1ccc(Cl)cc1C(F)(F)F)*; X30 = Cc1cc(C)c(C(=O)*)c(C)c1; X32 = Cc1ccc(C(=O)*)c(Cl)c1; X29 = Cc1cc(C)cc(C(=O)*)c1; X26 = Cc1ccc(CC(=O)*)cc1C; X28 = O=C(c1ccc(F)cc1Cl)*; X31 = O=C(c1ccc(Cl)cc1F)*; Octanoyl = CCCCCCCC(=O)*; X42 = Cc1ccc(C(=O)*)cc1F; Dab = NCC[C@H](N)C(=O)O; Abu = CC[C@H](N)C(=O)O; Dap = NC[C@H](N)C(=O)O

Tests used:
Acinetobacter baumannii = system: Acinetobacter baumannii
Method in brief: (§1)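 Using polymyxin B sulphate as comparator control, the trifluoroacetate-salt lipopeptides were assayed in CAMHB by broth microdilution to CLSI M100-S18, and MICs recorded.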

Enterobacter cloacae = system: Enterobacter cloacae
Method in brief: as §1

Pseudomonas aeruginosa = system: Pseudomonas aeruginosa
Method in brief: as §1

Row | Structure (SMILES) | Minimum inhibitory concentration, Ab A ATCC 17978 (Acinetobacter baumannii) [µg/mL] | Minimum inhibitory concentration, Ab ATCC 19606 (Acinetobacter baumannii) [µg/mL] | Minimum inhibitory concentration, Ab FADDI-AB034 (Acinetobacter baumannii) [µg/mL] | Minimum inhibitory concentration, Ec FADDI-EC001 (Enterobacter cloacae) [µg/mL] | Minimum inhibitory concentration, Ec FADDI-EC003 (Enterobacter cloacae) [µg/mL] | Minimum inhibitory concentration, Ec FADDI-EC006 (Enterobacter cloacae) [µg/mL] | Minimum inhibitory concentration, Pa ATCC 27853 (Pseudomonas aeruginosa) [µg/mL] | Minimum inhibitory concentration, Pa FADDI-PA022 (Pseudomonas aeruginosa) [µg/mL] | Minimum inhibitory concentration, Pa FADDI-PA025 (Pseudomonas aeruginosa) [µg/mL]
1 | CC[C@@H]1NC(=O)[C@@H](CC(C)C)NC(=O)[C@H](CCN)NC(=O)[C@@H](NC(=O)[C@H](CN)NC(=O)[C@@H](NC(=O)[C@H](CCN)NC(=O)c2c(C)cc(C)cc2C)[C@@H](C)O)CCNC(=O)[C@H]([C@@H](C)O)NC(=O)[C@H](CCN)NC(=O)[C@H](CCN)NC1=O [Compound 92] (X30-[Dab]T[Dap][Dab][Dab][dL][Abu][Dab][Dab]T; lactam 4-C) | 0.5 (≈ 0.441 µM) | 4 (≈ 3.53 µM) | 4 (≈ 3.53 µM) | <0.125 | 0.25 (≈ 0.221 µM) | 2 (≈ 1.76 µM) | 0.5 (≈ 0.441 µM) | 0.5 (≈ 0.441 µM) | 4 (≈ 3.53 µM)
2 | CC[C@@H]1NC(=O)[C@@H](CC(C)C)NC(=O)[C@H](CCN)NC(=O)[C@@H](NC(=O)[C@H](CN)NC(=O)[C@@H](NC(=O)[C@H](CCN)NC(=O)c2cc(C)cc(C)c2)[C@@H](C)O)CCNC(=O)[C@H]([C@@H](C)O)NC(=O)[C@H](CCN)NC(=O)[C@H](CCN)NC1=O [Compound 93] (X29-[Dab]T[Dap][Dab][Dab][dL][Abu][Dab][Dab]T; lactam 4-C) | 0.5 (≈ 0.447 µM) | 1 (≈ 0.893 µM) | 0.5 (≈ 0.447 µM) | 0.25 (≈ 0.223 µM) | 1 (≈ 0.893 µM) | 4 (≈ 3.57 µM) | 2 (≈ 1.79 µM) | 4 (≈ 3.57 µM) | 2 (≈ 1.79 µM)
3 | CC[C@@H]1NC(=O)[C@@H](CC(C)C)NC(=O)[C@H](CCN)NC(=O)[C@@H](NC(=O)[C@H](CN)NC(=O)[C@@H](NC(=O)[C@H](CCN)NC(=O)c2cc(C(F)(F)F)cc(C(F)(F)F)c2)[C@@H](C)O)CCNC(=O)[C@H]([C@@H](C)O)NC(=O)[C@H](CCN)NC(=O)[C@H](CCN)NC1=O [Compound 97] (X36-[Dab]T[Dap][Dab][Dab][dL][Abu][Dab][Dab]T; lactam 4-C) | <0.125 | 0.5 (≈ 0.407 µM) | 0.25 (≈ 0.204 µM) | 0.5 (≈ 0.407 µM) | 0.25 (≈ 0.204 µM) | 0.5 (≈ 0.407 µM) | 0.5 (≈ 0.407 µM) | 0.5 (≈ 0.407 µM) | 1 (≈ 0.815 µM)
4 | CC[C@@H]1NC(=O)[C@@H](CC(C)C)NC(=O)[C@H](CCN)NC(=O)[C@@H](NC(=O)[C@H](CN)NC(=O)[C@@H](NC(=O)[C@H](CCN)NC(=O)c2ccc(C)cc2)[C@@H](C)O)CCNC(=O)[C@H]([C@@H](C)O)NC(=O)[C@H](CCN)NC(=O)[C@H](CCN)NC1=O [Compound 98] ({Benzoyl(4-Me)}-[Dab]T[Dap][Dab][Dab][dL][Abu][Dab][Dab]T; lactam 4-C) | 2 (≈ 1.81 µM) | 2 (≈ 1.81 µM) | 2 (≈ 1.81 µM) | 1 (≈ 0.905 µM) | 0.25 (≈ 0.226 µM) | 2 (≈ 1.81 µM) | 0.5 (≈ 0.452 µM) | 0.5 (≈ 0.452 µM) | 2 (≈ 1.81 µM)
5 | CC[C@@H]1NC(=O)[C@@H](CC(C)C)NC(=O)[C@H](CCN)NC(=O)[C@@H](NC(=O)[C@H](CN)NC(=O)[C@@H](NC(=O)[C@H](CCN)NC(=O)c2ccc(C)cc2Cl)[C@@H](C)O)CCNC(=O)[C@H]([C@@H](C)O)NC(=O)[C@H](CCN)NC(=O)[C@H](CCN)NC1=O [Compound 101] (X32-[Dab]T[Dap][Dab][Dab][dL][Abu][Dab][Dab]T; lactam 4-C) | 0.5 (≈ 0.439 µM) | 0.5 (≈ 0.439 µM) | 1 (≈ 0.877 µM) | <0.125 | <0.125 | 0.25 (≈ 0.219 µM) | 0.5 (≈ 0.439 µM) | 2 (≈ 1.75 µM) | 2 (≈ 1.75 µM)
6 | CC[C@@H]1NC(=O)[C@@H](CC(C)C)NC(=O)[C@H](CCN)NC(=O)[C@@H](NC(=O)[C@H](CN)NC(=O)[C@@H](NC(=O)[C@H](CCN)NC(=O)c2ccc(C)c(F)c2)[C@@H](C)O)CCNC(=O)[C@H]([C@@H](C)O)NC(=O)[C@H](CCN)NC(=O)[C@H](CCN)NC1=O [Compound 102] (X42-[Dab]T[Dap][Dab][Dab][dL][Abu][Dab][Dab]T; lactam 4-C) | 1 (≈ 0.89 µM) | 2 (≈ 1.78 µM) | 1 (≈ 0.89 µM) | 1 (≈ 0.89 µM) | 0.5 (≈ 0.445 µM) | 4 (≈ 3.56 µM) | 0.5 (≈ 0.445 µM) | 0.5 (≈ 0.445 µM) | 2 (≈ 1.78 µM)
7 | CC[C@@H]1NC(=O)[C@@H](CC(C)C)NC(=O)[C@H](CCN)NC(=O)[C@@H](NC(=O)[C@H](CN)NC(=O)[C@@H](NC(=O)[C@H](CCN)NC(=O)Cc2ccc(C)c(C)c2)[C@@H](C)O)CCNC(=O)[C@H]([C@@H](C)O)NC(=O)[C@H](CCN)NC(=O)[C@H](CCN)NC1=O [Compound 103] (X26-[Dab]T[Dap][Dab][Dab][dL][Abu][Dab][Dab]T; lactam 4-C) | 0.5 (≈ 0.441 µM) | 0.5 (≈ 0.441 µM) | 0.5 (≈ 0.441 µM) | <0.125 | <0.125 | 0.5 (≈ 0.441 µM) | 0.5 (≈ 0.441 µM) | 0.5 (≈ 0.441 µM) | 2 (≈ 1.76 µM)
8 | CCCCCCCC(=O)N[C@@H](CCN)C(=O)N[C@H](C(=O)N[C@@H](CN)C(=O)N[C@H]1CCNC(=O)[C@H]([C@@H](C)O)NC(=O)[C@H](CCN)NC(=O)[C@H](CCN)NC(=O)[C@H](C)NC(=O)[C@@H](Cc2ccccc2)NC(=O)[C@H](CCN)NC1=O)[C@@H](C)O [Compound 128] (Octanoyl-[Dab]T[Dap][Dab][Dab][dF]A[Dab][Dab]T; lactam 4-C) | 0.25 (≈ 0.221 µM) | 0.25 (≈ 0.221 µM) | 0.25 (≈ 0.221 µM) | <0.125 | 0.25 (≈ 0.221 µM) | 0.5 (≈ 0.441 µM) | 0.5 (≈ 0.441 µM) | 1 (≈ 0.882 µM) | 4 (≈ 3.53 µM)
9 | CC[C@@H]1NC(=O)[C@@H](CC(C)C)NC(=O)[C@H](CCN)NC(=O)[C@@H](NC(=O)[C@H](CN)NC(=O)[C@@H](NC(=O)[C@H](CCN)NC(=O)c2ccc(Cl)cc2F)[C@@H](C)O)CCNC(=O)[C@H]([C@@H](C)O)NC(=O)[C@H](CCN)NC(=O)[C@H](CCN)NC1=O [Compound 134] (X31-[Dab]T[Dap][Dab][Dab][dL][Abu][Dab][Dab]T; lactam 4-C) | 2 (≈ 1.75 µM) | 2 (≈ 1.75 µM) | 0.5 (≈ 0.437 µM) | 0.25 (≈ 0.219 µM) | <0.125 | <0.125 | 0.5 (≈ 0.437 µM) | 1 (≈ 0.874 µM) | 1 (≈ 0.874 µM)
10 | CC[C@@H]1NC(=O)[C@@H](CC(C)C)NC(=O)[C@H](CCN)NC(=O)[C@@H](NC(=O)[C@H](CN)NC(=O)[C@@H](NC(=O)[C@H](CCN)NC(=O)c2ccc(F)cc2Cl)[C@@H](C)O)CCNC(=O)[C@H]([C@@H](C)O)NC(=O)[C@H](CCN)NC(=O)[C@H](CCN)NC1=O [Compound 135] (X28-[Dab]T[Dap][Dab][Dab][dL][Abu][Dab][Dab]T; lactam 4-C) | 1 (≈ 0.874 µM) | 4 (≈ 3.5 µM) | 1 (≈ 0.874 µM) | <0.125 | <0.125 | <0.125 | 0.5 (≈ 0.437 µM) | 1 (≈ 0.874 µM) | 2 (≈ 1.75 µM)
11 | CC[C@@H]1NC(=O)[C@@H](CC(C)C)NC(=O)[C@H](CCN)NC(=O)[C@@H](NC(=O)[C@H](CN)NC(=O)[C@@H](NC(=O)[C@H](CCN)NC(=O)c2ccc(Cl)cc2C(F)(F)F)[C@@H](C)O)CCNC(=O)[C@H]([C@@H](C)O)NC(=O)[C@H](CCN)NC(=O)[C@H](CCN)NC1=O [Compound 136] (X38-[Dab]T[Dap][Dab][Dab][dL][Abu][Dab][Dab]T; lactam 4-C) | 0.5 (≈ 0.419 µM) | 0.5 (≈ 0.419 µM) | 0.25 (≈ 0.209 µM) | <0.125 | <0.125 | 0.25 (≈ 0.209 µM) | 0.5 (≈ 0.419 µM) | 2 (≈ 1.68 µM) | 1 (≈ 0.838 µM)
